What was measured:
[1] = target: T1, mouse 5-HT3 receptor (Mus musculus, UniProt P23979); test: Compound affinity for the mouse 5-HT3 receptor (Assay C), [3H]-GR65630 radioligand binding, Novoscreen; settings: Assay C; single concentration 100 nM, in duplicate; [3H]-GR65630; read-out: Mouse % Inhibition @ 100 nM
T1 construct: host or cells: mouse neuroblastoma cells (N1E-155 as printed)
T1 sequence (P23979 24-489): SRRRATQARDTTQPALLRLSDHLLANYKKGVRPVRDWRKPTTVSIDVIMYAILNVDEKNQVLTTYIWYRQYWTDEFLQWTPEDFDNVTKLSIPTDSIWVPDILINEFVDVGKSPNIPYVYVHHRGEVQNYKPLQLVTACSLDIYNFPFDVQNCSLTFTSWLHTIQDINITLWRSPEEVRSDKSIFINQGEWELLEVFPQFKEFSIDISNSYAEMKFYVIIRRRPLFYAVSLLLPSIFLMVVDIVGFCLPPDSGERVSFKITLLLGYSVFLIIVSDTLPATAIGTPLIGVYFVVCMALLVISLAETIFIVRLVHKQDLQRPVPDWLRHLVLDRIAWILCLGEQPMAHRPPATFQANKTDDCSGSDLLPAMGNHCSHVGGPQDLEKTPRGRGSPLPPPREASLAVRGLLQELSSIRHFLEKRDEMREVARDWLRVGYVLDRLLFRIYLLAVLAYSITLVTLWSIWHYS
Method: Compound Affinity for the Mouse 5-HT3Receptor (Assay C)
Compounds were tested by Novoscreen Biosciences Corporation, 7170 Standard Drive, Hanover, Md. in a radioligand binding assay using the mouse 5-HT3 receptor derived from mouse neuroblastoma cells and [^3H]-GR65630 (ligand). The non-specific binding determinant was MDL 72222. Compounds were tested at a single concentration of 100 nM in duplicate. Percent inhibition is reported. In order to evaluate the relative affinity of the various compounds for the 5-HT3 receptor, N1E-155 cell lines were developed to express the target protein. For binding, these cells were homogenized, centrifuged and washed with buffer (20 mM HEPES, 150 mM NaCl, pH 7.4) then suspended in 0.5 mL of buffer and [^3H]-GR65630 added at a concentration of 3.5×10^−10 M. An initial single concentration of 10^−7 M of the test compound was then added. Incubation was carried out at room temperature for 60 minutes at 25° C. then was terminated by rapid removal of the incubation medium. Radioactivity was assessed using liquid scintillation spectrophotometry after exposure to scintillation cocktail for at least three hours. […] Ki values were then calculated from the Cheng-Prusoff equation. In all of the above binding studies the non-specific determinant was MDL-72222 (1.0 μM).
(§1) In the table below, the assay in which the data were obtained is shown (as A, B. C, or D) along with the data.

[2] = target: T2, 5-HT3 receptors (Mus musculus, UniProt P23979); test: Bezold-Jarisch assay in vivo: inhibition of serotonin induced bradycardia; settings: 30 mg/kg orally, 60 min before 5-HT 0.5 mg/kg IV, pentobarbital-anesthetized
T2 construct: from tissue; host or cells: whole animal, CD-1(Crl.) mice
T2 sequence (P23979 24-489): T1 sequence (P23979 24-489)
Method: Bezold-Jarisch Assay in vivo. […] Arch. Int. Pharmacodyn. 277: 235-252, 1985]. Test substances and vehicle [2% Tween 80] were each administered orally (30 mg/kg) to a group of 5 male or female CD-1(Crl.) mice each weighing 24±2 g. A dosing volume of 10 mL/kg was used. Sixty minutes later, 5-HT (0.5 mg/kg IV)-induced bradycardia was recorded in pentobarbital (80 mg/kg IP, given 10 minutes before 5-HT)-anesthetized animals.

[3] = target: T3, human 5-HT3 receptor (Homo sapiens, UniProt P46098); test: Compound affinity for the human 5-HT3 receptor (Assay B), SPA radioligand binding with [9-methyl-3H]BRL-43694; parameters: purchased Perkin Elmer
T3 sequence (P46098 24-478): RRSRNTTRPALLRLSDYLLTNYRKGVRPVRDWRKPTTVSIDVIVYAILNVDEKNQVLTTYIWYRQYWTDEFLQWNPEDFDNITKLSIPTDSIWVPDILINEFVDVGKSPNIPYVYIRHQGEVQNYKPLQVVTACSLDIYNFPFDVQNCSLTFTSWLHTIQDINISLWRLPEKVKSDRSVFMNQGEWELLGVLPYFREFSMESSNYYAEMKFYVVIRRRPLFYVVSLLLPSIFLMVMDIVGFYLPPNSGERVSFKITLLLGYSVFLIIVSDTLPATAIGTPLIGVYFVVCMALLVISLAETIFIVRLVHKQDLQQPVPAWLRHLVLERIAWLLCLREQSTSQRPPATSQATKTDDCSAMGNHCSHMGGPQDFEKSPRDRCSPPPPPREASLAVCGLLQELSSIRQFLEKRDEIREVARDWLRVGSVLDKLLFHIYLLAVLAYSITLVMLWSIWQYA
Method: Compound Affinity for the Human 5-HT3 Receptor (Assay B)
The relative affinity of the various compounds for the human 5-HT3 receptor was measured in a radioligand binding assay, using a scintillation proximity assay (SPA) format. Test compounds were dissolved to 10 mM in 100% DMSO, then serially diluted at 10× assay concentrations in 100% DMSO in 96-well polypropylene plates and further diluted to 4× assay concentrations with the assay buffer. Samples were incubated in 50 mM Tris-HCl, pH 7.5, 3 mM MgCl2, 1 mM EDTA and 10% DMSO with 10 nM [9-methyl-3H]BRL-43694 (Perkin Elmer), 3 μg of human 5-HT3 receptor membranes (Perkin Elmer) and 0.5 mg/mL SPA beads (WGA PVT, Amersham Biosciences) in a final volume of 0.2 mL. Binding reactions were set up in wells of PicoPlates-96 (Perkin Elmer) by adding consecutively 50 μL of each competing compound or buffer, SPA beads, the radioligand and 5-HT3 receptor membranes. After 60-min incubation at room temperature on a Nutator mixer, plates were centrifuged for 15 min at 1,500 rpm, followed by incubation in the dark for 30 min. Radioactivity was counted in the TopCount microplate counter (Perkin Elmer) for 5 min. Total binding control contained buffer only; nonspecific binding was determined in the presence of 30 μM MDL-72222. Specific binding was determined by subtracting nonspecific binding from total binding. All experiments were performed in duplicate using ten concentrations of a competing ligand, with ondansetron included as a control in every run. IC50 values were determined from specific binding data using XLfit4.1 curve fitting software from IDBS Ltd. Ki values were then calculated from the Cheng-Prusoff equation.
as §1

## CN1[C@@H]2CCC[C@H]1C[C@@H](NC(=O)c1cccc3oc(C4CC4)nc13)C2 [Example 1, Endo-N-(9-Methyl-9-azabicyclo[3.3.1]non-3-yl)-2-cyclopropylbenzoxazole-4-carboxamide]
[1]
  inhibition at 0.1 µM: 96.1%
[2]
  inhibition of 5-HT-induced bradycardia: 56%
[3]
  Ki: 4.1 nM

## O=C(N[C@@H]1CN2CCC1CC2)c1cccc2oc(C3CC3)nc12 [Example 2, (S)—N-(1-Azabicyclo[2.2.2]oct-3-yl)-2-cyclopropylbenzoxazole-4-carboxamide]
[1]
  inhibition at 0.1 µM: 87.7%
[2]
  inhibition of 5-HT-induced bradycardia: 80%
[3]
  Ki: 11 nM

Reference: patent publication US8278301B2, “2-alkylbenzoxazole carboxamides as 5HT3 modulators” (Albany Molecular Research, Inc., priority 2006, dated 2012)
